Earlier results on 6 molecules are cited in PMC12284023, “Metabolomic and chemometric profiling of crimson grapes during drying and its impact on antidiabetic activity” (NPJ Science of Food, 2025).

Data set [1] has as its system streptozotocin-injected rat. The arrangement: method as in PMID 32446112. The conditions noted are these: via suppressing uric acid, plasma glucose, triglyceride, total cholesterol, creatinine, IL-6, TNF-α, MCP-1 levels ref 60.
In data set [2] the test system is glycation products such as 5-hydroxymethylfurfural, fructosamine, and advanced glycation end products. Details: method as in ref 58 = [58]; 58. Ding H Blood glucose-lowering activity of protocatechuic acid is mediated by inhibiting α-glucosidase Food Sci. Hum. Wellness 2024 13 1212 1219 Ding, H. et al. Blood glucose-lowering activity of p. The conditions noted are these: advanced glycation end products ref 58.

A further data set concerns diabetic mice. The arrangement: method as in ref 58 = [58]; 58. Ding H Blood glucose-lowering activity of protocatechuic acid is mediated by inhibiting α-glucosidase Food Sci. Hum. Wellness 2024 13 1212 1219 Ding, H. et al. Blood glucose-lowering activity of p. The settings on record: diabetic mice ref 58.
The target in the next data set is pancreatic lipase. The arrangement: method as in PMID 26284613. The conditions noted are these: in vitro, dose-dependent ref 61.
For a further data set, the target named is α-glucosidase enzyme. Details: method as in ref 56 = [56]; 56. Cásedas G Cyanidin-3-O-glucoside inhibits different enzymes involved in central nervous system pathologies and type-2 diabetes South Afr. J. Bot. 2019 120 241 246 Cásedas, G. et al. Cyanidin-3-O-g. The settings on record: read-out: IC50 against α-glucosidase enzyme.
In data set [3] the test system is streptozotocin-induced diabetic mouse. Details: method as in ref 57 = [57]; 57. Choi K Choi S-I Park MH Han J-S Cyanidin-3-O-glucoside ameliorates postprandial hyperglycemia in diabetic mice J. Life Sci. 2017 27 32 37 Choi, K., Choi, S.-I., Park, M. H. & Han, J.-S. Cyanidin-3. The settings on record: oral administration of soluble starch with compound, streptozotocin-induced diabetic mouse ref 57.

Data set [4] relates to streptozotocin-induced diabetic rats. The arrangement: method as in PMID 35932369. The conditions noted are these: streptozotocin-induced diabetic rats ref 62.

Structures are written as SMILES. In brackets after ≈: the same amount, converted by molar mass.

For the molecule `CC(C)[C@@H](C)/C=C/[C@@H](C)[C@H]1CC[C@H]2C3=CC=C4C[C@@H](O)CC[C@]4(C)[C@H]3CC[C@]12C` [ergosterol, Ergosterol], in data set [1], the diabetic nephropathy entry is “attenuated diabetic nephropathy”.

`O=C(O)[C@H]1O[C@@H](Oc2c(-c3ccc(O)c(O)c3)oc3cc(O)cc(O)c3c2=O)[C@H](O)[C@@H](O)[C@@H]1O` [quercetin-3-O-glucuronide, Quercetin-3-O-glucuronide]: the “suppression of glycation products” value in data set [2] is “effectively suppressed”.

With `O=C(O)c1ccc(O)c(O)c1` [protocatechuic acid], the postprandial hypoglycemic activity result with diabetic mice was “acclaimed postprandial hypoglycemic activity”.

`O=c1ccc2cc(O[C@@H]3O[C@H](CO)[C@@H](O)[C@H](O)[C@H]3O)c(O)cc2o1` [Esculin]: the “IC50 pancreatic lipase inhibition” value on pancreatic lipase is 11.6 ± 0.92 µg/mL (≈ 34.1 µM).

What is called IC50 is the midpoint of a concentration-inhibition curve. On to `OC[C@H]1O[C@@H](Oc2cc3c(O)cc(O)cc3[o+]c2-c2ccc(O)c(O)c2)[C@H](O)[C@@H](O)[C@@H]1O` [Cyanidin-3-O-glucoside], for which the IC50 on α-glucosidase enzyme was 480 µM. Besides, the “levels of postprandial blood glucose” value in data set [3] was “significantly decreased”.

With `CC(C)(C)[C@]1(O)CC2OC(=O)CC23C(=O)OC2OC(=O)[C@H](O)C231` (some centres unmarked) [bilobalide, Bilobalide], in data set [4], the anti-retinopathy activity result is listed as “exhibited anti-retinopathy activity” and the blood glucose levels entry is on record as “decreased blood glucose levels”.
